Source: ChEMBL document CHEMBL1149429, “Privileged structure-based quinazolinone natural product-templated libraries: identification of novel tubulin polymerization inhibitors” (Bioorg Med Chem Lett, 2006)
pEC50, pIC50: −log10 of the molar value. The source made the active and inactive calls. No cut-off for these calls is given here.

Assays:
NCI-H460 = assay: Antiproliferative activity against NCI-H460 cell line by MTS assay; format: functional, cell-based; details: Homo sapiens
A549 = assay: Antiproliferative activity against A549 cell line by MTS assay; format: functional, cell-based; details: Homo sapiens
DU-145 = assay: Antiproliferative activity against DU145 cell line by MTS assay; format: functional, cell-based; details: Homo sapiens
MDA-MB-231 = assay: Antiproliferative activity against MDA-MB-231 cell line by MTS assay; format: functional, cell-based; details: Homo sapiens
SF-268 = assay: Antiproliferative activity against SF268 cell line by MTS assay; format: functional, cell-based; details: Homo sapiens
HMEC = assay: Antiproliferative activity against HMEC cell line by MTS assay; format: functional, cell-based; details: Homo sapiens
Tubulin (Homo sapiens) = Tubulin (Homo sapiens) (UniProt P68371+Q9H4B7+P0DPH7+P68366+Q13509+Q71U36+P04350+Q3ZCM7+P07437+P68363+Q9BQE3+Q6PEY2+Q13885+Q9BVA1+Q9BUF5); assay: Inhibitory activity against tubulin polymerization; format: protein-complex assay
Tubulin = assay: Effect on induction of mitotic arrest by phosphohistone H3 (pH3) assay; format: functional

| pIC50 (NCI-H460) | pIC50 (A549) | pIC50 (DU-145) | pIC50 (MDA-MB-231) | Activity (Tubulin (Homo sapiens)) | pEC50 (Tubulin) | SMILES | pIC50 (SF-268) | pIC50 (HMEC) |
| --- | --- | --- | --- | --- | --- | --- | --- | --- |
| 4.83 | < 4.70 | < 4.70 | < 4.70 | Active | – | COc1cc(/C=C2\CCCn3c2nc2ccc(O)cc2c3=O)cc(OC)c1O | < 4.70 | < 4.70 |
| 5.06 | < 4.70 | 4.74 | < 4.70 | Active | – | COc1cc(/C=C2\CCCn3c2nc2ccc(Cl)cc2c3=O)cc(OC)c1O | 4.73 | < 4.70 |
| 6.48 | 6.16 | 6.29 | 5.89 | Active | 6.27 | COc1cc(/C=C2\CCCn3c2nc2c(OC)cccc2c3=O)cc(OC)c1O | 6.10 | < 4.70 |
| 6.62 | 6.26 | 6.10 | 5.68 | Active | 6.59 | COc1cc(/C=C2\CCCn3c2nc2c(C)cc(C)cc2c3=O)cc(OC)c1O | 6.08 | < 4.70 |
| 5.43 | < 4.70 | 4.99 | < 4.70 | Active | – | COc1ccc2nc3n(c(=O)c2c1)CCC/C3=C\c1cc(OC)c(O)c(OC)c1 | < 4.70 | < 4.70 |
| 5.41 | 5.03 | 4.85 | < 4.70 | Active | – | COc1cc(/C=C2\CCCn3c2nc2ccc(F)cc2c3=O)cc(OC)c1O | 4.85 | < 4.70 |
| 5.37 | 4.97 | 4.99 | < 4.70 | Active | 4.97 | COc1cc(/C=C2\CCCn3c2nc2ccc(I)cc2c3=O)cc(OC)c1O | 4.95 | < 4.70 |
| 7.92 | 7.89 | – | – | – | 7.51 | CC(=O)O[C@H]1C(=O)[C@@]2(C)[C@H]([C@H](OC(=O)c3ccccc3)[C@]3(O)C[C@H](OC(=O)[C@H](O)[C@@H](NC(=O)c4ccccc4)c4ccccc4)C(C)=C1C3(C)C)[C@]1(OC(C)=O)CO[C@@H]1C[C@@H]2O [PACLITAXEL] | – | – |
| 5.82 | 5.50 | 5.58 | 4.95 | Active | 5.79 | COc1cc(/C=C2\CCCn3c2nc2c(C)cccc2c3=O)cc(OC)c1O | 5.46 | < 4.70 |
| 5.49 | < 4.70 | 4.83 | < 4.70 | Active | – | COc1cc(/C=C2\CCCn3c2nc2ccc(C)cc2c3=O)cc(OC)c1O | 4.94 | < 4.70 |
| 5.87 | 5.26 | 5.51 | 5.11 | Active | 5.94 | COc1cc(/C=C2\CCCn3c2nc2c(O)cccc2c3=O)cc(OC)c1O | 5.32 | < 4.70 |
| 5.70 | 4.93 | 5.07 | < 4.70 | Active | 5.62 | COc1cc(/C=C2\CCCn3c2nc2ccc(Br)cc2c3=O)cc(OC)c1O | 5.17 | < 4.70 |
